Drawing on patent publication US20090069300A1, “ISOQUINOLINYL AND ISOINDOLINYL DERIVATIVES AS HISTAMINE-3 ANTAGONISTS” (Wyeth, priority 2007, published 2009), this text covers melting point for 22 compounds.

Counter-ions that a name gives are not always drawn.

Compound `C[C@@H]1CCCN1CCN1CCc2cc(C(=O)N3CCCCCC3)ccc2C1=O` (as salt: hydrochloride) [Example 144, 6-(azepan-1-ylcarbonyl)-2-{2-[(2R)-2-methylpyrrolidin-1-yl]ethyl}-3,4-dihydroisoquinolin-1(2H)-one] gave a melting point of 192 to 193 °C.

`C[C@@H]1CCCN1CCN1CCc2cc(C(=O)NC3CCC3)ccc2C1=O` (as salt: hydrochloride) [Example 145, N-cyclobutyl-2-{2-[(2R)-2-methylpyrrolidin-1-yl]ethyl}-1-oxo-1,2,3,4-tetrahydroisoquinoline-6-carboxamide] gave a melting point of 214 to 215 °C.

`C[C@@H]1CCCN1CCN1CCc2cc(C(=O)NC3CCCCC3)ccc2C1=O` (as salt: hydrochloride) [Example 147, N-cyclohexyl-2-{2-[(2R)-2-methylpyrrolidin-1-yl]ethyl}-1-oxo-1,2,3,4-tetrahydroisoquinoline-6-carboxamide] had a melting point of 140 to 141 °C. The result for `C[C@@H]1CCCN1CCN1CCc2cc(C(=O)NC3Cc4ccccc4C3)ccc2C1=O` (as salt: hydrochloride) [Example 148, N-(2,3-dihydro-1H-inden-2-yl)-2-{2-[(2R)-2-methylpyrrolidin-1-yl]ethyl}-1-oxo-1,2,3,4-tetrahydroisoquinoline-6-carboxamide] reads 145 to 146 °C; that for `C[C@@H]1CCCN1CCN1CCc2cc(C(=O)NC3CCCC3)ccc2C1=O` (as salt: hydrochloride) [Example 149, N-cyclopentyl-2-{2-[(2R)-2-methylpyrrolidin-1-yl]ethyl}-1-oxo-1,2,3,4-tetrahydroisoquinoline-6-carboxamide], 219 to 220 °C. The result for `C[C@@H]1CCCN1CCN1CCc2cc(C(=O)N3CCCC3)ccc2C1=O` (as salt: hydrochloride) [Example 151, 2-{2-[(2R)-2-methylpyrrolidin-1-yl]ethyl}-6-(pyrrolidin-1-ylcarbonyl)-3,4-dihydroisoquinolin-1(2H)-one] reads 166 to 167 °C; that for `C[C@@H]1CCCN1CCN1CCc2cc(C(=O)N3Cc4ccccc4C3)ccc2C1=O` (as salt: hydrochloride) [Example 152, 6-(1,3-dihydro-2H-isoindol-2-ylcarbonyl)-2-{2-[(2R)-2-methylpyrrolidin-1-yl]ethyl}-3,4-dihydroisoquinolin-1(2H)-one], 109 to 110 °C; that for `O=C(c1ccc2c(c1)CCN(CCN1CCCC1)C2=O)N1CCCCC1` (as salt: hydrochloride) [Example 155, 6-(piperidine-1-carbonyl)-2-(2-(pyrrolidin-1-yl)ethyl)-3,4-dihydroisoquinolin-1(2H)-one], 144 to 147 °C. The result for `O=C(c1ccc2c(c1)CCN(CCN1CCCC1)C2=O)N1Cc2ccccc2C1` (as salt: hydrochloride) [Example 156, 6-(isoindoline-2-carbonyl)-2-(2-(pyrrolidin-1-yl)ethyl)-3,4-dihydroisoquinolin-1(2H)-one] reads 220 to 221 °C; that for `C[C@@H]1CCCN1CCN1CCc2cc(-c3ccc4c(c3)CCNC4=O)ccc2C1=O` (as salt: hydrochloride) [Example 157, (R)-2-(2-(2-methylpyrrolidin-1-yl)ethyl)-3,3′,4,4′-tetrahydro-6,6′-biisoquinoline-1,1′(2H,2′H-dione hydrochloride], 272 to 273.5 °C; that for `CN1CCc2cc(-c3ccc4c(c3)CCN(CCN3CCCC3)C4=O)ccc2C1=O` (as salt: hydrochloride) [Example 158, 2-methyl-2′-(2-(pyrrolidin-1-yl)ethyl)-3,3′,4,4′-tetrahydro-6,6′-biisoquinoline-1,1′(2H,2′H)-dione hydrochloride], 225 to 226 °C. Consider `C[C@@H]1CCCN1CCN1CCc2cc(N3CCCCC3)ccc2C1=O` (as salt: hydrochloride) [Example 161, 2-{2-[(2R)-2-methylpyrrolidin-1-yl]ethyl}-6-piperidin-1-yl-3,4-dihydroisoquinolin-1(2H)-one], for which the melting point is over 225 °C.

In turn, `O=C1c2ccc(N3CCCCC3)cc2CCN1CCN1CCCC1` (as salt: hydrochloride) [Example 162, 6-(piperidin-1-yl)-2-(2-(pyrrolidin-1-yl)ethyl)-3,4-dihydroisoquinolin-1(2H)-one] returned a melting point of 245 to 246 °C. Take `O=C1c2ccc(N3CCCCC3)cc2CCN1CCN1CCCCC1` (as salt: hydrochloride) [Example 163, 6-(piperidin-1-yl)-2-(2-(piperidin-1-yl)ethyl)-3,4-dihydroisoquinolin-1(2H)-one]: the melting point lay in the range of 245 to 246 °C. The result for `O=C1c2ccc(N3CCCCC3)cc2CCN1CCN1CCCCCC1` (as salt: hydrochloride) [Example 164, 2-(2-(azepan-1-yl)ethyl)-6-(piperidin-1-yl)-3,4-dihydroisoquinolin-1(2H)-one] reads 229 to 231 °C; that for `C[C@@H]1CCCN1CCN1CCc2cc(N3CCCC3)ccc2C1=O` (as salt: hydrochloride) [Example 165, (R)-2-(2-(2-methylpyrrolidin-1-yl)ethyl)-6-(pyrrolidin-1-yl)-3,4-dihydroisoquinolin-1(2H)-one], 182 to 183 °C. The result for `C[C@@H]1CCCN1CCN1CCc2cc(N3CCCCCC3)ccc2C1=O` (as salt: hydrochloride) [Example 166, (R)-6-(azepan-1-yl)-2-(2-(2-methylpyrrolidin-1-yl)ethyl)-3,4-dihydroisoquinolin-1(2H)-one] reads 182 to 184 °C.

As to `NC(=O)c1ccc(-c2ccc3c(c2)CCN(CCN2CCCC2)C3)cc1` (as salt: hydrochloride) [Example 180, 4-[2-(2-pyrrolidin-1-ylethyl)-1,2,3,4-tetrahydroisoquinolin-6-yl]benzamide], the melting point is 262 to 264 °C.

Compound `CNC(=O)c1ccc(-c2ccc3c(c2)CCN(CCN2CCCC2)C3)cc1` (as salt: hydrochloride) [Example 181, N-methyl-4-[2-(2-pyrrolidin-1-ylethyl)-1,2,3,4-tetrahydroisoquinolin-6-yl]benzamide] came in with a melting point of 280 to 281 °C. The result for `CCNC(=O)c1ccc(-c2ccc3c(c2)CCN(CCN2CCCC2)C3)cc1` (as salt: hydrochloride) [Example 182, N-ethyl-4-[2-(2-pyrrolidin-1-ylethyl)-1,2,3,4-tetrahydroisoquinolin-6-yl]benzamide] reads 266 to 268 °C. The result for `CN(C)C(=O)c1ccc(-c2ccc3c(c2)CCN(CCN2CCCC2)C3)cc1` (as salt: hydrochloride) [Example 183, N,N-dimethyl-4-[2-(2-pyrrolidin-1-ylethyl)-1,2,3,4-tetrahydroisoquinolin-6-yl]benzamide] reads 248 to 250 °C.

As to `O=C(c1ccc(-c2ccc3c(c2)CCN(CCN2CCCC2)C3)cc1)N1CCCC1` (as salt: hydrochloride) [Example 184, 6-[4-(pyrrolidin-1-ylcarbonyl)phenyl]-2-(2-pyrrolidin-1-ylethyl)-1,2,3,4-tetrahydroisoquinoline], the melting point is 241 to 242 °C.
